This is an account of results in a melting point compilation (Tetko et al.; mined from patent text by program, amines drawn as free bases though some values may be those of a salt).

A value given as a limit tells only on which side of the number the result lay.

For the compound `CCCCN(CCCC)C(=N)c1ccc(-c2ccc([N+](=O)[O-])cc2)o1`, the melting point fell in the range of 100 to 101 °C.

`Cc1cc(C)nc(OC(C)C(=O)O)n1` (configuration not stated) gave a melting point of 117 °C.

`CCOC(=O)c1nc(-c2ccc(C(C)(C)C)cc2)[nH]c1-c1ccc([N+](=O)[O-])cc1` showed a melting point of 190 to 191 °C.

With `COc1cc(C)c2c(c1C)CC(=O)N2`, the melting point is 262 to 263 °C.

For the compound `CN1CC=C(c2c[nH]c3ccc(CCNS(C)(=O)=O)cc23)CC1`, the melting point is 170 to 172 °C.

The compound `FC(F)(F)c1ccc2nc(-c3csc(Nc4c(Cl)cccc4Cl)n3)[nH]c2c1` showed a melting point of 242 to 243 °C.

In turn, `CC(C)OCCNC(=O)c1n[nH]cc1NC(=O)c1ccccn1` showed a melting point of 163 to 164 °C.

Take `N=C(NCl)c1ccsc1`: the melting point was 96 to 98 °C.

Regarding `CCCCC(O)(c1cn(C(c2ccccc2)(c2ccccc2)c2ccccc2)cn1)c1cc(Cl)cc2c1OC(C)(C)OC2` (configuration not stated), the melting point amounted to 124 °C.

For `Cc1c(Br)cccc1NCc1cc(C(C)(C)C)sc1C(=O)O`, the melting point fell in the range of 150 to 152 °C.

As to `O=CC(=Cc1ccc([N+](=O)[O-])s1)c1ccc(Br)cc1`, the melting point was 105 to 108 °C.

`CC12CCC(C1)C1(C)Oc3ccc(C(=O)c4ccc(C(=O)O)cc4)cc3C21C` (configuration not stated) came in with a melting point of 262 to 264 °C.

`O=c1c(-c2ccccc2)coc2ccccc12`: the melting point was 132 to 134 °C.

Take `CC1(C)SC2C(N)C(=O)N2C1NC(=O)OCC(Cl)(Cl)Cl` (configuration not stated): the melting point was 151 to 155 °C.

`O=c1c2ccccc2nnn1CCCN1CCC(c2c[nH]c3ccccc23)CC1`: the melting point amounted to 60 °C.

The compound `COc1ccc2cc(C=CC(C)OC(C)=O)ccc2c1` (configuration not stated) registered a melting point of 78 to 80 °C.

Turning to `O=C(CCc1ccncc1)c1c(O)c2cccnc2n(-c2ccccc2)c1=O`, the melting point is 206 to 208 °C.

As for `CC(=O)Nc1ccc(C2=NNC(=O)NC2C)cc1` (configuration not stated), the melting point was 272 to 273 °C.

In the case of `CCCCCn1c2ccccc2c2cc(C(=O)N3CCCCC3)ncc21`, the melting point lay in the range of 126 to 127 °C.

The compound `CCc1ccccc1C=CC=C1SC(=S)N(CC(=O)O)C1=O` displayed a melting point of 161 to 183 °C.

`Fc1ccc(-n2cc(OCCN3CCCCC3)c3cc(Cl)ccc32)cc1` yielded a melting point of 82 to 84 °C.

In the case of `CC[C@@H](C)NCc1cnc2c(C)c(NC(=O)c3ccc(OC[C@@H]4CCCO4)cc3)ccc2c1`, the melting point lay within 118 to 119 °C.

`O=S(=O)(c1nc(-c2ccc(F)cc2)c(-c2cccs2)[nH]1)C(F)(F)C(F)F` showed a melting point of 192 to 193 °C.

Turning to `O=C(Nc1ccccn1)Nc1csc(-c2ccccn2)n1`, the melting point is 233 to 235 °C.

In the case of `Cc1ccc(C#N)c(OC(C)(C)C=O)c1`, the melting point fell in the range of 57 to 59 °C.

Regarding `Cc1c(C)c2c(c(C)c1N)CC(C)(CN1CCC(CCCc3ccccc3)CC1)O2` (configuration not stated), the melting point was 79 to 80 °C.

With `NC(=O)c1ccc(N2CCNCC2)cc1`, the melting point lay within 240 to 243 °C.

In the case of `CN(C)C(=O)NC1(Cc2ccccc2)CCN(Cc2ccccc2)CC1`, the melting point turned out to be 131 °C.

For the compound `Clc1ccc(-c2nc(Cl)nc(Cl)c2-c2ccccc2)cc1`, the melting point lay in the range of 129 to 131 °C.

Regarding `CC#Cc1ncn2c1CN(C)C(=O)c1c(Cl)cccc1-2`, the melting point was 243 to 244 °C.

Consider `CCCn1c(=O)c2[nH]c(/C=C/c3cc(C)c(OC)cc3C)nc2n(CCC)c1=O`, for which the melting point fell in the range of 268 to 269 °C.

`CCOC(=O)C(C)Oc1ccc(OCc2ccccc2)cc1F` (configuration not stated) had a melting point of 63 °C.

Compound `COc1ccc(C2Sc3c(ccc4ccccc34)N(CCN(C)C)C(=O)C2OC(=O)c2cccnc2)cc1` (configuration not stated) had a melting point of 144 to 145 °C.

As for `CCCC[C@H](NC(=O)[C@H](CC(=O)O)NC(=O)Nc1ccc([N+](=O)[O-])cc1)C(=O)OC`, the melting point was 204 to 205 °C.

`CC(=Cc1ccccc1)c1ccc2c(c1)SCC(C)(C)CS2`: the melting point was in the range of 45 to 48 °C.

As for `COc1ccc2ccccc2c1CN1CCC(=O)C(C(c2ccc(F)cc2)c2ccc(F)cc2)C1` (configuration not stated), the melting point was 125 to 126 °C.

As to `c1ccc2c(c1)CSO2`, the melting point turned out to be 87 °C.

`Cc1nccn1C(C)CC(O)(c1ccccc1)c1ccccc1` (configuration not stated) registered a melting point of 168 to 169 °C.

Turning to `Cc1c(O)nc2ccc(F)cc2c1C(=O)O`, the melting point is over 305 °C.

Consider `O=C(CCl)Nc1ccc2c(c1NC(=O)Cc1ccccc1)C(=O)c1ccccc1C2=O`, for which the melting point is 184 to 185 °C.

The compound `CC(C)(C)c1ccc(S(=O)(=O)N2c3ccccc3C[C@H]2C(=O)NCc2ccc(CCC(=O)O)cc2)cc1` had a melting point of 80 to 85 °C.

Regarding `O=C1CCC(O)(c2ccc3c(c2)OCO3)CC1`, the melting point lay in the range of 162 to 164 °C.

Compound `O=C(O)c1cc(=O)c2c([nH]1)-c1ccccc1SC2` returned a melting point of 256 to 257 °C.

In the case of `CCN(CC)C(=O)n1cc(F)c(=O)[nH]c1=O`, the melting point fell in the range of 157 to 160 °C.

For `O=c1c2ccc(Cl)cc2[nH]c2c(O)nn(CC#Cc3ccccc3Cl)c(=O)c12`, the melting point lay in the range of 255 to 257 °C.

In the case of `CC(C)(C)OC(=O)[C@@H]1CS[C@H](c2ccccc2-c2ccccc2)N1C(=O)CNC(=O)Nc1cccc(CC(=O)O)c1`, the melting point stood at 128 °C.

Consider `Cc1cc(-n2ccc(OCc3ccccc3)cc2=O)sc1C(=O)NCc1ccc(F)cc1`, for which the melting point lay within 175 to 177 °C.

In turn, `CCOC(=O)CC(=O)c1cc(F)c(S(=O)(=O)CC)nc1Nc1ccc(F)cc1F` gave a melting point of 113 to 114 °C.

Regarding `CCN(CC)c1ccc(-c2nc3ccc(OC(F)(F)F)cc3[nH]2)cc1`, the melting point lay within 168 to 173 °C.

With `Brc1ccc(-c2cnc(-c3ccccc3)nc2)cc1`, the melting point was 194 °C.

In turn, `CCC(CC(=O)NC(=O)OC(C)(C)C)Nc1ccc(OC)cc1` (configuration not stated) gave a melting point of 65 to 66 °C.

Turning to `CCOc1nsc(NC(=O)NC)c1C(N)=O`, the melting point lay in the range of 240 to 241 °C.

The compound `Cc1cc(F)c(F)cc1O` yielded a melting point of 68 to 70 °C.

Consider `O=C1NCCc2ccc(O)cc21`, for which the melting point is 201 to 203 °C.

In turn, `CCOC(=O)c1[nH]c(CC)nc1C1CC1` displayed a melting point of 154 to 155 °C.

The compound `Cn1c(SCC(=O)NCCC[N+](C)([O-])Cc2ccc(Cl)c(Cl)c2)nc2ccccc21` (configuration not stated) registered a melting point of 106 to 110 °C.

Consider `Cc1ccc(Nc2cc(NCc3ccccc3)c(C(=O)O)cc2S(N)(=O)=O)cc1`, for which the melting point was found to be 128 °C.

`CCC1CCC(C2CCC(CC)CC2)CC1` (configuration not stated) registered a melting point of -6 °C.

The compound `O=C1CCCC1Oc1cccc2onc(OCC3CCN(CC4(O)CCOCC4)CC3)c12` (configuration not stated) showed a melting point of 133 °C.

For the compound `Cc1nnnn1-c1ncccc1C(=O)O`, the melting point was 178 to 180 °C.

`Cc1cccc2c1C(=O)NS2(=O)=O`: the melting point was in the range of 224 to 226 °C.

On to `Cc1c(I)c(=O)n(C2CCCC2)c2nc(Nc3ccc(N4CCNCC4)cn3)ncc12`, for which the melting point was over 240 °C.

In turn, `CN1Cc2nc[nH]c2C[C@@H]1C(=O)c1ccccc1` showed a melting point of 98 °C.

As for `CC(SC#N)C(=O)N(CC(=O)OC(C)(C)C)C1CCCC1` (configuration not stated), the melting point was 76 to 78 °C.

Consider `COc1cc2c(cc1OC)C1=C(CC2)NC(=O)CC1`, for which the melting point lay within 270 to 271 °C.

Regarding `COc1ccc2c(=O)[nH]nc(C)c2c1`, the melting point was 252 to 254 °C.

`COCCOCCCCC(=O)c1ccc(Br)cc1` had a melting point of 25.5 to 26.5 °C.

Consider `COc1ccccc1CNc1cc(C(=O)Nc2ccccc2)ccc1OC`, for which the melting point fell in the range of 177 to 179 °C.

Consider `CCOP(=O)(Cc1ccc(NC(=O)c2sc(SC)c3c2CCc2nc(C)oc2-3)cc1)OCC`, for which the melting point was in the range of 197 to 198 °C.

Regarding `O=c1c(Cl)c(-c2ccncn2)nc2n1CCCN2C[C@@H](O)c1ccccc1`, the melting point fell in the range of 158 to 160 °C.

The compound `CC(=CC#N)CCN1C(=O)c2ccccc2S1(=O)=O` yielded a melting point of 117 to 118 °C.

`O=C(O)Cc1c(Cl)c(F)nc(F)c1Cl` gave a melting point of 157 to 159 °C.

For the compound `Cc1noc(-c2cc3c4ccccc4n(CCCCl)c3cn2)n1`, the melting point fell in the range of 180 to 185 °C.

As to `COC(=O)CCCCOc1ccc(CNC(=O)C2Cc3ccccc3N2S(=O)(=O)c2ccc(-c3cccc(C(F)(F)F)c3)cc2)cc1` (configuration not stated), the melting point amounted to 50 °C.

On to `CCCCNC(=O)NS(=O)(=O)c1ccc(CCNC(=O)N2Cc3ccccc3C2=O)cc1`, for which the melting point is 188 to 190 °C.

The compound `COc1ccc2c3c(n(C)c2c1)SCCC3=O` displayed a melting point of 204 to 206 °C.

`CCOC(=O)Cc1c(C)ncnc1O` returned a melting point of 148 to 149 °C.

With `CNC(=O)C(=O)c1ccccc1COc1cc(C)ccc1C`, the melting point lay within 129 to 130 °C.

With `CC1CCN(c2nc(N)c3ccccc3n2)CC1`, the melting point stood at 190 °C.

As to `COc1ccc(N2C(=O)[C@@H](CCCc3ccccc3)[C@@H]2c2ccc(N3CCN(Cc4ccccc4)CC3)cc2)cc1` (relative stereo), the melting point is 139 to 140 °C.

For the compound `O=C(O)c1cccc2cc3ccc(Cl)cc3c(C(=O)O)c12`, the melting point was 325 to 327 °C.

In turn, `CN1C(=O)NCc2cccnc21` had a melting point of 140 to 143 °C.

`COc1cc(C)nc(NC(=O)NS(=O)(=O)c2ccccc2C(CF)OC(C)=O)n1` (configuration not stated) yielded a melting point of 198 to 200 °C.

Regarding `CC(=O)NC[C@H]1CN(c2ccc(N3CCC(n4ncnn4)CC3)c(F)c2)C(=O)O1`, the melting point is 186 to 188 °C.

As for `COc1ccc(S(=O)(=O)N(CC(N)=O)c2ccc(Cl)cc2Cc2cc(Cl)ccc2Cl)cc1OC`, the melting point turned out to be 200 °C.

In the case of `CCCCOc1c(NC(C)C(C)(C)C)c(=O)c1=O` (configuration not stated), the melting point lay in the range of 90 to 99 °C.

Compound `COc1ccc2c(C)cc(=O)oc2c1C` gave a melting point of 162 to 164 °C.

The compound `CCCc1nn(-c2ccc(C(F)(F)F)cn2)cc1CCCCOc1cc(CC(=O)O)ccc1OC` showed a melting point of 147 to 148 °C.

Consider `CCOC(=O)c1c(CN(CCC(C)C)CCC(C)C)nc2cc(OC)c(OC)cc2c1-c1ccc(OC)c(OC)c1`, for which the melting point is 114 to 115 °C.

Consider `COc1cc2c(cc1Nc1ncc(Cl)c(Nc3cccc(N4CCOCC4)c3)n1)CCN(CC(=O)N(C)C)CC2`, for which the melting point was in the range of 91 to 111 °C.

Take `CC(C)(C)OC(=O)Nc1ccc(OC(=O)C2CCCCC2)c(C(=O)O)c1`: the melting point was 68 to 74 °C.

For `Cc1ccc(C(C)CC(=O)NC(C)c2ccc(NS(C)(=O)=O)c(F)c2)cc1C` (configuration not stated), the melting point was in the range of 152 to 154 °C.
